Converted amounts (≈) assume the structure as drawn.
Legend:
PDE V isoenzyme = PDE V isoenzyme (Homo sapiens, UniProt O76074); assay: PDE V isoenzyme inhibition; type: biochemical; conditions: concentration required to provide 50% inhibition of PDE V isoenzyme
Description: Forms 1 and 2 of Compound 13 are each useful for inhibiting PDE V isoenzymes. Their isoenzyme activities (potencies) and isoenzyme selectivities can be measured by the PDE V IC50 value, which is the concentration (in nM) of compound required to provide 50% inhibition of PDE V isoenzyme. […] Similarly, an IC50 value may be obtained for other PDE isoenzymes, such as the PDE VI isoenzyme. Isoenzyme selectivity in this respect may be defined as the activity of a PDE inhibitor compound for a particular PDE isoenzyme as opposed to another PDE isoenzyme, for example, the activity of a compound to inhibit a PDE V isoenzyme compared to the activity of the same compound to inhibit a PDE VI isoenzyme.

[1] = Water solubility of the polymorphs; type: physicochemical
[2] = Thermodynamic stability of the polymorphs; type: physicochemical; conditions: at process temperatures
Method: The two polymorphs also further differ in their water solubilities (Form 1: about 50 μg/mL vs. Form 2: about 30 μg/mL). […] Form 1 can equilibrate to Form 2 when slurried in one of the Form 2 crystallizing solvents (e.g., alcohol, nitrile, ester, etc.). For example, when a mixture of Form 1 of Compound 13 and Form 2 of Compound 13 is suspended in an organic crystallizing solvent (e.g., ethyl acetate, isopropanol, acetonitrile, and the like), and stored for an extended period of time (e.g., greater than or equal to about 10 hours), the Form 1 component of the mixture will convert to Form 2 of Compound 13.

SMILES | IC50 (PDE V isoenzyme) [nM] | solubility [1] [µg/mL] | water solubility [1] | thermodynamic stability [2]
CCn1c(=O)c2c(nc(N[C@@H]3CCC[C@H]3O)n2Cc2ccc(OC)c(Br)c2)n(CCO)c1=O [Form 1 of Compound 13, 1-ethyl-3,7-dihydro-8-[(1R,2R) -(hydroxycyclopentyl)amino]-3-(2-hydroxyethyl)-7-[(3-bromo-4-methoxyphenyl)methyl]-1H-Purine-2,6-dione] | 2 to 3 | ~50 (≈ 95.7 µM) | – | –
CCn1c(=O)c2c(nc(N[C@@H]3CCC[C@H]3O)n2Cc2ccc(OC)c(Br)c2)n(CCO)c1=O [Form 2 of Compound 13, 1-ethyl-3,7-dihydro-8-[(1R,2R) -(hydroxycyclopentyl)amino]-3-(2-hydroxyethyl)-7-[(3-bromo-4-methoxyphenyl)methyl]-1H-Purine-2,6-dione] | – | – | about 30 μg/mL | more thermodynamically stable than Form 1 of Compound 13

— patent US7192962B2, “Xanthine phosphodiesterase V inhibitor polymorphs” (Schering Corporation, priority 2002, dated 2007)
